Our source for the inhibition values is ChEMBL document CHEMBL3727350, “Agents and methods for treating ischemic and other diseases” (2014).

The source made the active and inactive calls. The rule behind the calls is not given here. A value given as a limit tells only on which side of the number the result lay.

Transient receptor potential cation channel subfamily M member 7 (Mus musculus), sequence (Q923J1 whole entry): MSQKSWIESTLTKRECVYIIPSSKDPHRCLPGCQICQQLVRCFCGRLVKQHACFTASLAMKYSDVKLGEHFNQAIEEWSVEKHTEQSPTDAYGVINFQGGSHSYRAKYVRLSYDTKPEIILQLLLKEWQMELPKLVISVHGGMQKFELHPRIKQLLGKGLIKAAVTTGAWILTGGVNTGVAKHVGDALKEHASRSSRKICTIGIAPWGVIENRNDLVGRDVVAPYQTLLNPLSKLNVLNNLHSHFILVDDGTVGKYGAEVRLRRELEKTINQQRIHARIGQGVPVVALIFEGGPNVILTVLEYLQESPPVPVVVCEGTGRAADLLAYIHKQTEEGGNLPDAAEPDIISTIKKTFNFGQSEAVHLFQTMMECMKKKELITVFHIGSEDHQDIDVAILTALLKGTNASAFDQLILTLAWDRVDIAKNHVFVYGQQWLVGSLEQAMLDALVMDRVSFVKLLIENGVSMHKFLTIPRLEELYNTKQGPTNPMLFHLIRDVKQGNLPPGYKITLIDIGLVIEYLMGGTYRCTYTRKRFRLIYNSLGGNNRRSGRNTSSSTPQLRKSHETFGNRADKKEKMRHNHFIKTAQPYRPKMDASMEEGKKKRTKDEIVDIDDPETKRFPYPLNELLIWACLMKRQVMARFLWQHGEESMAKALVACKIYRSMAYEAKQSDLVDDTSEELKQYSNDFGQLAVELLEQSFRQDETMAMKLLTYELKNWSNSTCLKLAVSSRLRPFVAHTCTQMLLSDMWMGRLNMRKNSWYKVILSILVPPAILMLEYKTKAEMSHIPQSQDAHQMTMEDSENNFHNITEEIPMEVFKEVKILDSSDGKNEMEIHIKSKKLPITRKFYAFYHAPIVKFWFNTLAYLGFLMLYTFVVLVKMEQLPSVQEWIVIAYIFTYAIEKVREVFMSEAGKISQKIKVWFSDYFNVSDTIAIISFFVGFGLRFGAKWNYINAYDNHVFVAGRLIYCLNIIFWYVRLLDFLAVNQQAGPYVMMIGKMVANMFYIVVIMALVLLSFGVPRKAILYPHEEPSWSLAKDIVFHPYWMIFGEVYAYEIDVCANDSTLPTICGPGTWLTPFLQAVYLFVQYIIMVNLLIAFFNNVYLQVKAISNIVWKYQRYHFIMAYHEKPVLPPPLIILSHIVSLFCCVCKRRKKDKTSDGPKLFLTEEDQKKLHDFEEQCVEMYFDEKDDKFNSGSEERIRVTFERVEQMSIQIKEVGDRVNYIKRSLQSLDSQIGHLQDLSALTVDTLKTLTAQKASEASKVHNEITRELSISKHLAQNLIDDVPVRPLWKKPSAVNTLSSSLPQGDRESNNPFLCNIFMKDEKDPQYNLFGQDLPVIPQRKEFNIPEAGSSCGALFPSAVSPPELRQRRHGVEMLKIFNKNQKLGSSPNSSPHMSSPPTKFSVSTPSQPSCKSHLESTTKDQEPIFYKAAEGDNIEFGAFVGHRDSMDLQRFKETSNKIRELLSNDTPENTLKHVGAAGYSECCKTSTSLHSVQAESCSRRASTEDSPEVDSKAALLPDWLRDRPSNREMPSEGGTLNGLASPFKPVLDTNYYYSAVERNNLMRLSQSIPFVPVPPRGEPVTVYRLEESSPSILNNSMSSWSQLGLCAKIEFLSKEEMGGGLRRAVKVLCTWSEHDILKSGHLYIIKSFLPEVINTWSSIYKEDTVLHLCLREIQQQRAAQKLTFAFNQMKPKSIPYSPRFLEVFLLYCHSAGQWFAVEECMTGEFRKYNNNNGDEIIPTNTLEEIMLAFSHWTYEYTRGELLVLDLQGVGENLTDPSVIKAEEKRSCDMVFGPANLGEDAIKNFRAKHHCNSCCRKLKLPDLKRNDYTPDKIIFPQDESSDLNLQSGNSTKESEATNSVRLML

The first test has as its target Transient receptor potential cation channel subfamily M member 7 (Mus musculus) (UniProt Q923J1). The experiment in a line: Inhibition of Tet-induced Flag-tagged mouse TRPM7 expressed in HEK293 cells assessed as inhibition of channel-mediated cell death in presence of Mg2+ incubated for 24 to 48 hrs by propidium iodide uptake assay.
Settings: not given
The class given is cell-based. Further details: concentration or dose not given beside the values.
One may read the inhibition as the change of the read-out against control, counted positive when it falls. With `COc1cccc2c1C(=O)c1c(O)c3c(c(O)c1C2=O)C[C@@](O)(C(C)=O)C[C@@H]3O[C@H]1C[C@H](N)[C@H](O)[C@H](C)O1`, the inhibition result was “Dose-dependent effect”.

`C=C(C)[C@@H]1CC[C@]2(C(=O)O)CC[C@]3(C)[C@H](CC[C@@H]4[C@@]5(C)CC[C@H](O)C(C)(C)[C@@H]5CC[C@]43C)[C@@H]12`: the inhibition result was “Dose-dependent effect”.

With `CC[C@H]1CN2CCc3cc(OC)c(OC)cc3[C@@H]2C[C@@H]1C[C@H]1NCCc2cc(OC)c(OC)cc21`, the inhibition entry was “Active”. Still for that read-out and setting: under `CCOc1ccc(Cc2nccc3cc(OCC)c(OCC)cc23)cc1OCC` stands “Dose-dependent effect”.

The same test, now with this note: concentration not given here.
On to `O=C(Oc1ccc([N+](=O)[O-])cc1)c1c(Cl)cccc1Cl`, for which the inhibition worked out at 50%. Regarding `Cc1ccc([N+](=O)[O-])c(C(=O)NNC(=S)Nc2cccc(Cl)c2)c1`, the inhibition is 60%.

Consider `Clc1ccc(CO/N=C/c2nc3ccccc3s2)cc1`, for which the inhibition is 40%. As to `Cc1ccc(Cn2nc(C(=O)O/N=C(\N)c3cccc(C(F)(F)F)c3)cc2C)cc1`, the inhibition is under 30%.

For `FC(F)(F)c1cccc(OCc2ccc(-c3ncns3)cc2)c1`, the inhibition was found to be 50%. Still for that read-out and setting: under `Cc1ccc(NS(=O)(=O)c2ccc(-c3cnc(C)s3)s2)c(C)c1` stands 80%; under `Cc1[nH]c2ccccc2c1CN1CCN(c2ccc(F)cc2)CC1`, under 30%; under `O=S(=O)(c1cccc(Cl)c1)N1CCC(O)(c2ccc(Cl)cc2)CC1`, 70%.

Take `CCOC(=O)CCc1cc(/N=C/c2cc(Cl)cc(Cl)c2O)c(O)c(/N=C/c2cc(Cl)cc(Cl)c2O)c1`: the inhibition was determined as 50%. Still for that read-out and setting: the figure for `CS(=O)(=NS(=O)(=O)c1ccc(Cl)cc1Cl)c1ccc(Cl)cc1` (stereo not given) is under 30%; for `O=C(Nc1ccc(CN2CCS(=O)(=O)CC2)cc1)c1ccc(C(F)(F)F)cc1` it is 40%. The same measure, in the same setting: the figure for `O=C1CC2Sc3ccccc3N=C2N1Cc1ccccn1` (stereo not given) is under 30%; for `c1ccc2c(c1)Nc1nc3ccccc3nc1N2` it is under 30%; for `CN(C)c1cccc(N(C)C)c1CNC(=O)c1ccc(Cl)cc1` it is 80%. The same measure, in the same setting: under `CCC1(c2cccc(OC)c2)CCCC(=O)NC1` (stereo not given) stands under 30%. On to `Cc1nn(Cc2nc(-c3ccc(Cl)cc3)cs2)c(C)c1Br`, for which the inhibition turned out to be 40%. Same read-out and setting: the figure for `Cc1cc(O)nc2c1c(-c1ccccc1)nn2C` is under 30%.

With `OC(CN1CCN(Cc2c(F)cccc2Cl)CC1)Cn1ccc2ccccc21` (stereo not given), the inhibition is 50%.

For the molecule `CCOC(=O)c1ccc2c(c1)CC/C(=C\c1cccc(C(F)(F)F)c1)C2=O`, the inhibition is under 30%. On to `CC(C)NC(=O)c1cc(-c2cccs2)on1`, for which the inhibition was 30%. Still for that read-out and setting: under `CCCCc1ccc(NC(=O)CSc2nc(-c3ccccc3)c(-c3ccccc3)o2)c(C)c1` stands under 30%.

On to `O=S(=O)(CCN1CCC(n2cccc2)CC1)c1ccc(F)cc1`, for which the inhibition is 40%. On the same count and under the same terms, under `CCOC(=O)c1nn(-c2cccc(Cl)c2)cc(Sc2ccc(Cl)cc2)c1=O` stands 40%.

As for `Cc1csc2ncnc(N3CCN(C(=O)Nc4ccc(OC(F)(F)F)cc4)CC3)c12`, the inhibition came out at 50%. Still for that read-out and setting: under `O=C(c1cc(Br)cc2c1OCC2)N1CCOCC1` stands under 30%; under `O=C1NC(=O)/C(=C/c2cccc(C#Cc3ccccc3)c2)S1`, 60%. Same read-out and setting: under `CCOC(=O)C(=CNc1csc(C)c1C(=O)OC)C(=O)OCC` stands 60%; under `O=C(O)c1cc(C(F)(F)F)cc(C(F)(F)F)c1`, under 30%; under `Cc1ccc(C(=O)Nc2cccnc2Oc2ccc(C(C)(C)C)cc2)cc1C`, 60%. The same measure, in the same setting: the figure for `Cc1csc2ncnc(N3CCN(S(=O)(=O)c4ccc(Cl)cc4)CC3)c12` is 70%. In the case of `O=[N+]([O-])c1cccc(-c2ccc(/C=N/NC(=S)NCc3ccco3)o2)c1`, the inhibition was under 30%. As for `O=C1NC(=S)S/C1=C\c1cccc([N+](=O)[O-])c1`, the inhibition is under 30%. Same read-out and setting: the figure for `Cn1c(SCC(=O)Nc2cccc3nsnc23)nnc1C(F)(F)F` is under 30%; for `CCOC(=O)c1nc(COc2ccccc2Cl)[nH]c(=O)c1C` it is under 30%. On the same count and under the same terms, the figure for `Cc1csc(-c2nc(-c3ccc(Cl)cc3)no2)c1Cl` is under 30%; for `COc1ccc2nnc(-c3ccc(C(F)(F)F)cc3)n2n1` it is under 30%; for `Cc1ccc(Cn2nc(C(=O)O)cc2C)cc1` it is under 30%. On the same count and under the same terms, under `N#Cc1ccc(/C=N/Nc2ncc(-c3ccc4c(c3)OCCCO4)s2)cc1` stands 70%; under `N#CCc1nn(-c2ccccc2)c(/N=C/c2cc(Cl)cc(Cl)c2O)c1C#N`, 60%. With `Cc1cc(C)cc(N/C=C(\C#N)S(=O)(=O)c2ccc(Cl)cc2)c1`, the inhibition was under 30%. In the case of `CSc1ncc2c(n1)CC(C)(C)C/C2=N/OC(=O)c1ccc(Cl)cc1`, the inhibition was under 30%. On the same count and under the same terms, the figure for `O=C(NCc1cccs1)c1ccccc1` is under 30%. On the same count and under the same terms, the figure for `OC(CN1CCN(C(c2ccccc2)c2ccccc2)CC1)c1ccccc1` (stereo not given) is 60%. The same measure, in the same setting: the figure for `O=C(CSC1CN(C(c2ccccc2)c2ccccc2)C1)N/N=C/c1ccncc1` is 50%.

As to `Clc1ccc2c(N3CCCCC3)ccnc2c1`, the inhibition is under 30%.

As for `Cc1onc(-c2c(Cl)cccc2Cl)c1C(=O)Oc1ccc2c(C(F)(F)F)cc(=O)oc2c1`, the inhibition was under 30%. Take `Cc1cc(-c2nnc(C(F)(F)F)o2)ccc1NC(=S)Nc1ccc(Cl)cc1Cl`: the inhibition is 70%. Still for that read-out and setting: under `NC(=O)C1CCN(CCS(=O)(=O)c2ccccc2)CC1` stands 30%; under `Cc1nnsc1C(=O)NCc1csc2ccc(Cl)cc12`, under 30%. Turning to `Cc1cc(SCc2nnc(-c3ccc([N+](=O)[O-])c(C)c3)o2)c(C)cc1Cl`, the inhibition is 80%. In the case of `CC(C)(C)c1ccc(N2C(=N)SCC2=O)cc1`, the inhibition was determined as 40%. Same read-out and setting: under `O=C(NNC(=S)Nc1ccc2c(c1)CCCO2)c1ccco1` stands under 30%; under `CC(C)(C)[C@H](CO)/N=C/c1cccc(/C=N/[C@H](CO)C(C)(C)C)n1`, under 30%; under `Fc1ccc(N2CCN(Cc3c[nH]c(-c4ccccc4)n3)CC2)cc1`, 70%. Same read-out and setting: the figure for `COc1ccc(CCNc2ccc(C(F)(F)F)cc2[N+](=O)[O-])cc1OC` is 30%; for `Cc1onc(-c2c(Cl)cccc2Cl)c1C(=O)Oc1ccccc1` it is under 30%; for `COc1ccccc1C1CCN(Cc2c[nH]nc2-c2ccccc2)CC1` it is 80%. Take `N#C/C(=N\Nc1ccc(Cl)cc1)C(N)=S`: the inhibition is 60%.

`COc1ccccc1C1CCN(C(=O)CSCc2cccc3ccccc23)CC1`: the inhibition was found to be 80%.

For the molecule `O=C(Nc1ccc(Cl)cc1)OCc1noc(-c2cccs2)n1`, the inhibition was 70%.

Turning to `CCOC(=O)C(=CNNC(=O)c1cnn(-c2ccc([N+](=O)[O-])cc2)c1C(F)(F)F)C(=O)OCC`, the inhibition is 90%. In the case of `COc1cc(C(=O)Oc2c(Cl)cc(Cl)cc2/C=N\c2cccc(C(F)(F)F)c2)cc(OC)c1OC`, the inhibition is under 30%. On the same count and under the same terms, under `COC(=O)C(O)(c1ccc(NC(=O)Nc2ccc(Cl)cc2)cc1)C(F)(F)F` (stereo not given) stands 50%. The same measure, in the same setting: under `CCOC(=O)c1sc2nc(C)c(/N=N/c3ccccc3)c(C)c2c1N` stands under 30%; under `Cc1nc(-c2ccc(C(F)(F)F)cc2)nc(O)c1Cl`, under 30%. The same measure, in the same setting: under `C/C=N/N(c1ccccc1)c1cc(-c2ccc(OC)cc2)c(C#N)c(=O)[nH]1` stands 60%; under `Brc1ccc2nc(C34CC5CC(CC(C5)C3)C4)cn2c1`, 60%.

With `CC(C)(C)c1cc(C(=O)/C(C#N)=N/Nc2cccc(Cl)c2)no1`, the inhibition turned out to be 70%. For `CC(=O)CSc1nnc(CN2C(=O)CSc3ccc(C(F)(F)F)cc32)n1C`, the inhibition was under 30%.

Consider `COc1ccc(-c2n[nH]cc2CN2CCN(c3ccccc3OC)CC2)cc1`, for which the inhibition is under 30%. The same measure, in the same setting: the figure for `CC1CN=C(N(CCc2ccccc2)C(=O)Nc2ccc(Cl)cc2)S1` (stereo not given) is under 30%; for `O=C(O/N=C(\Cn1nnc(N2CCCCC2)n1)c1ccc(Cl)cc1)c1ccccc1Cl` it is under 30%; for `O=C(O)C1Cc2ccccc2CN1` (stereo not given) it is under 30%. Same read-out and setting: the figure for `O=c1c(-c2ccccc2)c(O)c2cccc3c4ccccc4n1c23` is 90%; for `Cn1c(CN2C(=O)CSc3ccc(C(F)(F)F)cc32)nnc1SCC(=O)c1ccccc1` it is under 30%; for `COc1cc2c(cc1OC)C(c1cccc(C)c1)NCC2` (stereo not given) it is 60%. Still for that read-out and setting: the figure for `COc1ccccc1NC(=O)Nc1nn(C)c2cccc(N(C)C)c12` is 60%; for `Cc1onc(-c2c(Cl)cccc2Cl)c1C(=O)NCCc1csc2ccccc12` it is under 30%; for `N#Cc1ccc2[nH]cc(CCN(Cc3ccccc3)Cc3ccccc3)c2c1` it is under 30%.

For `CCc1ccc2[nH]c(C(=O)N(C)c3ccc(F)cc3F)cc2c1`, the inhibition is under 30%. On the same count and under the same terms, the figure for `Oc1c(Cl)cc(Cl)cc1/C=N/c1ccc(Cl)cn1` is 40%; for `CSc1scc(NC(=O)Nc2cccc(Cl)c2)c1S(=O)(=O)C(C)C` it is 60%. Still for that read-out and setting: the figure for `N#Cc1c(Cl)cccc1Oc1ccc(S(=O)(=O)Nc2ccccc2)cc1` is 40%. The same measure, in the same setting: the figure for `CN(C)C=O.O=C(Nc1nnc(Sc2ccnc3cc(Cl)ccc23)s1)c1sc2ccccc2c1Cl` is 80%; for `O=C1/C(=C\c2ccc(F)cc2)Sc2ccccc21` it is under 30%; for `O=c1[nH]c2c(Cl)c(Cl)ccc2c(O)c1-c1ccccc1` it is 60%. In the case of `O=C(c1ccc(F)cc1)C1CCN(Cc2c[nH]c(-c3ccccc3)n2)CC1`, the inhibition amounted to 30%. Same read-out and setting: under `Cc1c(S(=O)(=O)Nc2ccc(Cl)cc2)sc2ccc(Cl)cc12` stands under 30%; under `COc1ccc(C2C3CCc4ccccc4C3=NN2CCOC(=O)Nc2ccc(Cl)cc2)cc1` (stereo not given), 60%. The same measure, in the same setting: the figure for `O=C(Sc1ccc(C(F)(F)F)cn1)c1ccc(Cl)cc1` is under 30%; for `O=C(/C=C/c1cccs1)NC(=S)Nc1ccccc1Cl` it is under 30%.
